In brackets after ≈: the same amount, converted by molar mass. Activity calls are given as the source filed them. The rule behind the calls is not given here.
Experiments:
Mus musculus = test: Anti-inflammatory activity against MSU-induced peritonitis mouse model assessed as reduction in IL-1beta secretion in peritoneal cavity at 10 mg/kg, treated by gavage 30 mins before MSU induction measured after 6 hrs modeling by ELISA; format: functional, organism-based
[1] = Inhibition of NLRP3 inflammasome pathway in human THP-1 cells assessed as inhibition of LPS/MSU-induced IL-1beta secretion
[2] = Plasma stability in human plasma assessed as compound remaining measured after 30 mins; format: ADME, cell-free; details: read-out: Stability
Cytochrome P450 2C9 = Cytochrome P450 2C9 (Homo sapiens, UniProt P11712); test: Inhibition of CYP2C9 (unknown origin); format: ADME
Sequence of Cytochrome P450 2C9 (P11712 whole entry): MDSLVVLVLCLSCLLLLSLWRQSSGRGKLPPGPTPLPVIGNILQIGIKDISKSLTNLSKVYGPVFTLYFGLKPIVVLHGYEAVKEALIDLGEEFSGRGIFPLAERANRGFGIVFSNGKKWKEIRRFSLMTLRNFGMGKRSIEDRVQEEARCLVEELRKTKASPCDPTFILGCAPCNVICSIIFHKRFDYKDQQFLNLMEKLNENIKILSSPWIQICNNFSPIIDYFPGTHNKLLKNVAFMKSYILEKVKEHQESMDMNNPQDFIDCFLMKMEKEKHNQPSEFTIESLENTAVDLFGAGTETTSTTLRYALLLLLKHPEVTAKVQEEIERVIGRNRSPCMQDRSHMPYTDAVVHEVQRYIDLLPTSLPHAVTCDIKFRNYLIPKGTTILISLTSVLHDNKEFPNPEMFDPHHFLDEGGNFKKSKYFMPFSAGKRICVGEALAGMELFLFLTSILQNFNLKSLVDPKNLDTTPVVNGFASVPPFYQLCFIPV

Cytochrome P450 1A2 = target: T1, Cytochrome P450 1A2 (Homo sapiens, UniProt P05177); test: Inhibition of CYP1A2 (unknown origin); format: ADME
T1 sequence (P05177 whole entry): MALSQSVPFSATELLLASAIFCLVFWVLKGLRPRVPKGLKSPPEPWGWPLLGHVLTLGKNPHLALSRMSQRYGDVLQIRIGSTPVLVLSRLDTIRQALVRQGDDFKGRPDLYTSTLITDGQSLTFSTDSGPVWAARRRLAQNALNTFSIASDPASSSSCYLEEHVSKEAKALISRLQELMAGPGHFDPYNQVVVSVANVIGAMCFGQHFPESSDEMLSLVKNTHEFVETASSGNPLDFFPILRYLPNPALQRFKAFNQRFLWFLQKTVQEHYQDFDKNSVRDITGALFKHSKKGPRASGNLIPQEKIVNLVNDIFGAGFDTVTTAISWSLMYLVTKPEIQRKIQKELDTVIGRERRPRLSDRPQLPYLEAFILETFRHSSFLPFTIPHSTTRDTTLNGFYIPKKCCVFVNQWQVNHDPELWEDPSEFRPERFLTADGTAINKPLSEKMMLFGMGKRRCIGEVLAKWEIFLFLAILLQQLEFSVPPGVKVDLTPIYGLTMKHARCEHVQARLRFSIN

[3] = Plasma stability in human plasma assessed as compound remaining measured after 120 mins; format: ADME, cell-free; details: read-out: Stability
[4] = Plasma stability in human plasma assessed as compound remaining measured immediately; format: ADME, cell-free; details: read-out: Stability
Cytochrome P450 3A4 [5] = target: T2, Cytochrome P450 3A4 (Homo sapiens, UniProt P08684); test: Inhibition of CYP3A4 (unknown origin) using midazolam as substrate; format: ADME
T2 sequence (P08684 whole entry): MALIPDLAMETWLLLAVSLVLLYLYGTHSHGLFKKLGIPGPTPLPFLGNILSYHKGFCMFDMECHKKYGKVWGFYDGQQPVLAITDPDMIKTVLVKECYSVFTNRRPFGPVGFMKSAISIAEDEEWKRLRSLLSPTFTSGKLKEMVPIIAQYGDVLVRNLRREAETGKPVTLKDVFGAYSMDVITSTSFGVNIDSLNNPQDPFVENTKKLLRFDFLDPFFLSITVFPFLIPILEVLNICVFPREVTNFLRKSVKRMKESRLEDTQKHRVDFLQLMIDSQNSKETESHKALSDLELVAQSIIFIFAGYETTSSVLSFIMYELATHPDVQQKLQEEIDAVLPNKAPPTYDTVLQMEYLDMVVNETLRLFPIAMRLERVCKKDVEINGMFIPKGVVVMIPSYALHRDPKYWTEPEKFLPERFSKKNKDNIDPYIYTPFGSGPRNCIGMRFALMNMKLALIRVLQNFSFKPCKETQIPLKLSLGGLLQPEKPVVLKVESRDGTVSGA

[6] = Plasma stability in human plasma assessed as compound remaining measured after 15 mins; format: ADME, cell-free; details: read-out: Stability
[7] = Plasma stability in human plasma assessed as compound remaining measured after 60 mins; format: ADME, cell-free; details: read-out: Stability
[8] = Plasma stability in human plasma assessed as compound remaining measured after 5 mins; format: ADME, cell-free; details: read-out: Stability
Cytochrome P450 3A4 [9] = target: T2, Cytochrome P450 3A4; test: Inhibition of CYP3A4 (unknown origin) using testosterone as substrate; format: ADME
HEK-293T = test: Cytotoxicity against human HEK293T cells assessed as cell viability at 50 uM measured after 24 hrs by CCK8 assay; format: toxicity, cell-based
Cytochrome P450 2C19 = Cytochrome P450 2C19 (Homo sapiens, UniProt P33261); test: Inhibition of CYP2C19 (unknown origin); format: ADME
Sequence of Cytochrome P450 2C19 (P33261 whole entry): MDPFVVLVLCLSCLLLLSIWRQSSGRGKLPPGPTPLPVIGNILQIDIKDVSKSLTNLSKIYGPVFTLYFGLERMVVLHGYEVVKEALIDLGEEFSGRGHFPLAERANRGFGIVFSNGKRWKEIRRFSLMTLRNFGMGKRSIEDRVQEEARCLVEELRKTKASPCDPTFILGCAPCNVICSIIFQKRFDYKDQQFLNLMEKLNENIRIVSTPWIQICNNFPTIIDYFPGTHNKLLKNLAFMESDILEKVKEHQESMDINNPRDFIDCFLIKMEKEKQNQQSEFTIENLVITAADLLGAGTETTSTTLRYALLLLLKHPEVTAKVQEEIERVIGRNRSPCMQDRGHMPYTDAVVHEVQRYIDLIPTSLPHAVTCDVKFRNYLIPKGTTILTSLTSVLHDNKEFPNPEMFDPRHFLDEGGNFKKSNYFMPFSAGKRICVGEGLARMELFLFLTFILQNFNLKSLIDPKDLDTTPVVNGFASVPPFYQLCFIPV

Cytochrome P450 2D6 = Cytochrome P450 2D6 (Homo sapiens, UniProt P10635); test: Inhibition of CYP2D6 (unknown origin); format: ADME
Sequence of Cytochrome P450 2D6 (P10635 whole entry): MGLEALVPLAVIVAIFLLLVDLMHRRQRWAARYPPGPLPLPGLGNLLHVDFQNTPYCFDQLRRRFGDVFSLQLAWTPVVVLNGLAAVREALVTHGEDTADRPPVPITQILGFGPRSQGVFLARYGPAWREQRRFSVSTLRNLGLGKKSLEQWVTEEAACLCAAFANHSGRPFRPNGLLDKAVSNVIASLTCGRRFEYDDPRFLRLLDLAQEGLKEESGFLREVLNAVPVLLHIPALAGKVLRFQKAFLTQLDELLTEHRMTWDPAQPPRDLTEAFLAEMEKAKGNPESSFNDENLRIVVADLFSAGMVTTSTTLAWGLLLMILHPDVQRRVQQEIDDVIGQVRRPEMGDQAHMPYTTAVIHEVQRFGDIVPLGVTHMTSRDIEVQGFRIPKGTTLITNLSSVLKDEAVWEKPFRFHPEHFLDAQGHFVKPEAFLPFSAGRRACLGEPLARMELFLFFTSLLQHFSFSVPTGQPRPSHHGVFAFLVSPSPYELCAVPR

[10] = Aqueous solubility of the compound in pH 7.4 PBS buffer; format: physicochemical
[11] = Plasma stability in human plasma assessed as half life; format: ADME, cell-free

Row | IC50 [1] [µM] | remaining at 0.5 h [2] [%] | remaining at 2 h [3] [%] | remaining at 0.25 h [6] [%] | remaining at 1 h [7] [%] | remaining at 5 min [8] [%] | solubility [10] [µM] | SMILES | other results
1 |  |  |  |  |  |  |  | CC(C)(O)c1coc(S(=O)(=O)NC(=O)Nc2c3c(cc4c2CCC4)CCC3)c1 | Activity (Mus musculus): Active
2 | 13.9 |  |  |  |  |  |  | COc1ccc(CN2C(=S)N(c3ccc(C(C)(C)C)cc3)C(=O)C2(C)C)cc1F | 
3 | 15.7 |  |  |  |  |  |  | COc1ccc(N2C(=O)C(C)(C)N(Cc3ccc(C(C)C)cc3)C2=S)cc1 | 
4 | > 20 |  |  |  |  |  |  | COc1ccccc1N1C(=O)C(C)(C)N(Cc2ccc(C)c(C)c2)C1=S | 
5 | 6.9 | 96.2 | 102 | 105 | 102 | 98.9 | 0.017 (≈ 0.00626 µg/mL) | COc1ccc(N2C(=O)C(C)(C)N(Cc3ccc(C)c(C)c3)C2=S)cc1 | IC50 (Cytochrome P450 2C9): 4.57 µM; IC50 (Cytochrome P450 1A2): > 100 µM; remaining at 0 min [4]: 100%; IC50 (Cytochrome P450 3A4 [5]): > 10 µM; IC50 (Cytochrome P450 3A4 [9]): > 10 µM; Activity (HEK-293T): Toxic; IC50 (Cytochrome P450 2C19): 2.95 µM; IC50 (Cytochrome P450 2D6): > 10 µM
6 | > 50 |  |  |  |  |  |  | COc1ccc(N2C(=O)C(C)(C)N(C(=O)c3ccccc3C(F)(F)F)C2=S)cc1 | 
7 |  |  |  |  |  |  | 91.2 (≈ 23.7 µg/mL) | CC(C)NCC(O)COc1cccc2ccccc12 (configuration not stated) [PROPRANOLOL] | 
8 | > 20 |  |  |  |  |  |  | COc1ccc(N2C(=O)C(C)(C)N(Cc3cc(C(F)(F)F)ccc3C(F)(F)F)C2=S)cc1 | 
9 | 5.3 | 92.3 | 93.3 | 101 | 101 | 97.2 | 2.56 (≈ 1.28 µg/mL) | CC1(C)C(=O)N(c2ccc(Oc3ccccc3)cc2)C(=S)N1Cc1ccc(S(N)(=O)=O)c(F)c1 | IC50 (Cytochrome P450 2C9): 7.73 µM; IC50 (Cytochrome P450 1A2): > 100 µM; remaining at 0 min [4]: 100%; IC50 (Cytochrome P450 3A4 [5]): > 10 µM; IC50 (Cytochrome P450 3A4 [9]): > 10 µM; Activity (HEK-293T): Toxic; IC50 (Cytochrome P450 2C19): 4.43 µM; IC50 (Cytochrome P450 2D6): > 10 µM
10 | 10.1 | 104 | 97.3 | 96.6 | 105 | 99.2 | 0.032 (≈ 0.0139 µg/mL) | COc1ccc(N2C(=O)C(C)(C)N(Cc3ccc(Br)c(C)c3)C2=S)cc1 | IC50 (Cytochrome P450 2C9): 6.15 µM; IC50 (Cytochrome P450 1A2): > 100 µM; remaining at 0 min [4]: 100%; IC50 (Cytochrome P450 3A4 [5]): > 10 µM; IC50 (Cytochrome P450 3A4 [9]): > 10 µM; Activity (HEK-293T): Toxic; half-life [11]: 18000 min; IC50 (Cytochrome P450 2C19): 1.4 µM; IC50 (Cytochrome P450 2D6): > 10 µM
11 |  | 23.9 | 3.67 | 106 | 4.34 | 112 | 0.012 (≈ 0.00475 µg/mL) | COc1ccc(N2C(=O)/C(=C/c3ccccc3C(F)(F)F)SC2=S)cc1 | IC50 (Cytochrome P450 2C9): 4.65 µM; IC50 (Cytochrome P450 1A2): 5.2 µM; remaining at 0 min [4]: 100%; IC50 (Cytochrome P450 3A4 [5]): > 10 µM; IC50 (Cytochrome P450 3A4 [9]): > 10 µM; half-life [11]: 20.3 min; IC50 (Cytochrome P450 2C19): 6.87 µM; IC50 (Cytochrome P450 2D6): > 10 µM
12 | > 20 |  |  |  |  |  |  | CC(C)(C)c1ccc(N2C(=O)C(C)(C)N(Cc3ccc4ncoc4c3)C2=S)cc1 | 
13 |  |  |  |  |  |  | 13.6 (≈ 3 µg/mL) | c1ccc(-c2nc[nH]c2-c2ccccc2)cc1 | 
14 | > 20 |  |  |  |  |  |  | COc1ccc(N2C(=O)C(C)(C)N(Cc3ccc(-c4ccccc4C#N)cc3)C2=S)cc1 | 
15 | > 20 |  |  |  |  |  |  | COc1ccc(N2C(=O)C(C)(C)N(Cc3cccc(C(F)(F)F)c3)C2=S)cc1 | 

Row | SMILES | IC50 [1] [µM] | remaining at 0.5 h [2] [%] | remaining at 2 h [3] [%] | remaining at 0.25 h [6] [%] | remaining at 1 h [7] [%] | remaining at 5 min [8] [%] | solubility [10] [µM] | other results
16 | CC(C)[N+](C)(CCOC(=O)C1c2ccccc2Oc2ccccc21)C(C)C [PROPANTHELINE] |  | 37.4 | 2.91 | 58.5 | 10.7 | 88 |  | half-life [11]: 23.2 min
